Measurements from PubChem BioAssay AID2060909 (Molecular Pharmacology Branch, DTP, NCI, 2025).
pIC50: −log10 of the molar value.

Test system: 362531-283-R-J2-PDC complex spheroid viability
Assay: Anticancer human tumor 362531-283-R-J2-PDC patient-derived colon adenocarcinoma cell line growth inhibition [RAS]
Settings: for pIC50: curve of first compound; for viability, T/C: stronger effect = lower value
Method in brief: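 Agents were tested in combination matrices in half-log decrements from a top concentration at or near clinical Cmax (10 microM if undetermined). Targets were multi-cell spheroids of tumour lines plus HUVEC and MSC stromal cells.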
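Note: spheroids exposed to the agents for 7 days before readout.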
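Throughout, for viability, T/C: luminescence viability as percent of DMSO vehicle control wells.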

With C=CC(=O)N1CCN(c2nc(OCC3CCCN3C)nc3c(F)c(-c4nc(N)cc(C)c4C(F)(F)F)c(Cl)cc23)C(C)C1 (centres undefined) + CCn1c(-c2cccnc2C(C)OC)c2c3cc(ccc31)N1CCOC(CC(NC(=O)C(C(C)C)N(C)C(=O)C3(F)CCN(C(=O)C#CC(C)(C)N(C)C)CC3)C(=O)N3CCCC(N3)C(=O)OCC(C)(C)C2)C1 the pIC50 (second compound 0.000949 µM) was less than 6.00, the pIC50 (second compound 0.003 µM) was less than 6.00 and the pIC50 (second compound 0.00949 µM) was less than 6.00. For the same compound, the pIC50 (second compound 0.03 µM) was less than 6.00, the pIC50 (second compound 0.0949 µM) was less than 6.00 and the pIC50 (second compound 0.3 µM) was less than 6.00. The viability, T/C (second compound 0.000949 µM, first compound 0.00316 µM) was 98.9%, the viability, T/C (second compound 0.000949 µM, first compound 0.01 µM) was 106% and the viability, T/C (second compound 0.000949 µM, first compound 0.0316 µM) was 106%. It also gave a viability, T/C (second compound 0.000949 µM, first compound 0.1 µM) of 97%, a viability, T/C (second compound 0.000949 µM, first compound 0.316 µM) of 107% and a viability, T/C (second compound 0.000949 µM, first compound 1 µM) of 95.2%. The viability, T/C (second compound 0.003 µM, first compound 0.00316 µM) was 111%, the viability, T/C (second compound 0.003 µM, first compound 0.01 µM) was 104% and the viability, T/C (second compound 0.003 µM, first compound 0.0316 µM) was 98.5%. It also gave a viability, T/C (second compound 0.003 µM, first compound 0.1 µM) of 92.4%, a viability, T/C (second compound 0.003 µM, first compound 0.316 µM) of 96.1% and a viability, T/C (second compound 0.003 µM, first compound 1 µM) of 91.8%. The viability, T/C (second compound 0.00949 µM, first compound 0.00316 µM) was 101%, the viability, T/C (second compound 0.00949 µM, first compound 0.01 µM) was 122% and the viability, T/C (second compound 0.00949 µM, first compound 0.0316 µM) was 97.2%. For the same compound, the viability, T/C (second compound 0.00949 µM, first compound 0.1 µM) was 100%, the viability, T/C (second compound 0.00949 µM, first compound 0.316 µM) was 101% and the viability, T/C (second compound 0.00949 µM, first compound 1 µM) was 98.8%. The viability, T/C (second compound 0.03 µM, first compound 0.00316 µM) was 100%, the viability, T/C (second compound 0.03 µM, first compound 0.01 µM) was 117% and the viability, T/C (second compound 0.03 µM, first compound 0.0316 µM) was 87%. It also gave a viability, T/C (second compound 0.03 µM, first compound 0.1 µM) of 96.2%, a viability, T/C (second compound 0.03 µM, first compound 0.316 µM) of 101% and a viability, T/C (second compound 0.03 µM, first compound 1 µM) of 106%. It also gave a viability, T/C (second compound 0.0949 µM, first compound 0.00316 µM) of 93.6%, a viability, T/C (second compound 0.0949 µM, first compound 0.01 µM) of 95.7% and a viability, T/C (second compound 0.0949 µM, first compound 0.0316 µM) of 103%. It also gave a viability, T/C (second compound 0.0949 µM, first compound 0.1 µM) of 101%, a viability, T/C (second compound 0.0949 µM, first compound 0.316 µM) of 95.6% and a viability, T/C (second compound 0.0949 µM, first compound 1 µM) of 113%. The viability, T/C (second compound 0.3 µM, first compound 0.00316 µM) was 100%, the viability, T/C (second compound 0.3 µM, first compound 0.01 µM) was 109% and the viability, T/C (second compound 0.3 µM, first compound 0.0316 µM) was 108%. The viability, T/C (second compound 0.3 µM, first compound 0.1 µM) was 103%, the viability, T/C (second compound 0.3 µM, first compound 0.316 µM) was 94.4% and the viability, T/C (second compound 0.3 µM, first compound 1 µM) was 100%.

CC1(C)CCC(Nc2ncc(C(F)(F)F)c(-c3c[nH]c4c(P(C)(C)=O)c(C#N)ccc34)n2)CN1 (centres undefined) + CCn1c(-c2cccnc2C(C)OC)c2c3cc(ccc31)N1CCOC(CC(NC(=O)C(C(C)C)N(C)C(=O)C3(F)CCN(C(=O)C#CC(C)(C)N(C)C)CC3)C(=O)N3CCCC(N3)C(=O)OCC(C)(C)C2)C1 was tested, and the pIC50 (second compound 0.000949 µM) was less than 6.52, the pIC50 (second compound 0.003 µM) was less than 6.52 and the pIC50 (second compound 0.00949 µM) was less than 6.52. For the same compound, the pIC50 (second compound 0.03 µM) was less than 6.52, the pIC50 (second compound 0.0949 µM) was less than 6.52 and the pIC50 (second compound 0.3 µM) was less than 6.52. For the same compound, the viability, T/C (second compound 0.000949 µM, first compound 0.000949 µM) was 105%, the viability, T/C (second compound 0.000949 µM, first compound 0.003 µM) was 99.2% and the viability, T/C (second compound 0.000949 µM, first compound 0.00949 µM) was 102%. The viability, T/C (second compound 0.000949 µM, first compound 0.03 µM) was 98.3%, the viability, T/C (second compound 0.000949 µM, first compound 0.0949 µM) was 108% and the viability, T/C (second compound 0.000949 µM, first compound 0.3 µM) was 99.1%. For the same compound, the viability, T/C (second compound 0.003 µM, first compound 0.000949 µM) was 110%, the viability, T/C (second compound 0.003 µM, first compound 0.003 µM) was 99.3% and the viability, T/C (second compound 0.003 µM, first compound 0.00949 µM) was 98%. It also gave a viability, T/C (second compound 0.003 µM, first compound 0.03 µM) of 92.6%, a viability, T/C (second compound 0.003 µM, first compound 0.0949 µM) of 107% and a viability, T/C (second compound 0.003 µM, first compound 0.3 µM) of 89.1%. The viability, T/C (second compound 0.00949 µM, first compound 0.000949 µM) was 97.5%, the viability, T/C (second compound 0.00949 µM, first compound 0.003 µM) was 102% and the viability, T/C (second compound 0.00949 µM, first compound 0.00949 µM) was 87.3%. For the same compound, the viability, T/C (second compound 0.00949 µM, first compound 0.03 µM) was 105%, the viability, T/C (second compound 0.00949 µM, first compound 0.0949 µM) was 102% and the viability, T/C (second compound 0.00949 µM, first compound 0.3 µM) was 104%. It also gave a viability, T/C (second compound 0.03 µM, first compound 0.000949 µM) of 98.5%, a viability, T/C (second compound 0.03 µM, first compound 0.003 µM) of 110% and a viability, T/C (second compound 0.03 µM, first compound 0.00949 µM) of 95.9%. It also gave a viability, T/C (second compound 0.03 µM, first compound 0.03 µM) of 98.9%, a viability, T/C (second compound 0.03 µM, first compound 0.0949 µM) of 100% and a viability, T/C (second compound 0.03 µM, first compound 0.3 µM) of 91.3%. The viability, T/C (second compound 0.0949 µM, first compound 0.000949 µM) was 86.8%, the viability, T/C (second compound 0.0949 µM, first compound 0.003 µM) was 99.5% and the viability, T/C (second compound 0.0949 µM, first compound 0.00949 µM) was 103%. It also gave a viability, T/C (second compound 0.0949 µM, first compound 0.03 µM) of 95.2%, a viability, T/C (second compound 0.0949 µM, first compound 0.0949 µM) of 103% and a viability, T/C (second compound 0.0949 µM, first compound 0.3 µM) of 107%. The viability, T/C (second compound 0.3 µM, first compound 0.000949 µM) was 96.8%, the viability, T/C (second compound 0.3 µM, first compound 0.003 µM) was 102% and the viability, T/C (second compound 0.3 µM, first compound 0.00949 µM) was 94.1%. It also gave a viability, T/C (second compound 0.3 µM, first compound 0.03 µM) of 98.5%, a viability, T/C (second compound 0.3 µM, first compound 0.0949 µM) of 101% and a viability, T/C (second compound 0.3 µM, first compound 0.3 µM) of 94.9%.
